From the NIST ThermoML archive (doi:10.1016/j.tca.2012.05.004)

Assay: xn = mol fraction of the nth substance listed
Settings: 101.3 kPa, Liquid, Vibrating tube method

ClCCCl [1,2-dichloroethane] + CC(C)O
mass density [kg/m3]
Settings	288.15 K	293.15 K	298.15 K	303.15 K	308.15 K	313.15 K
x2 = 0.05	1235.82	1228.61	1221.38	1214.13	1206.71	1199.46
x2 = 0.1004	1211.74	1204.56	1197.38	1190.17	1182.93	1175.66
x2 = 0.1497	1188.26	1181.19	1174.09	1166.95	1159.78	1152.57
x2 = 0.2	1164.61	1157.64	1150.63	1143.59	1136.5	1129.37
x2 = 0.25	1141.22	1134.37	1127.47	1120.53	1113.54	1106.5
x2 = 0.3002	1117.88	1111.14	1104.37	1097.54	1090.67	1083.74
x2 = 0.3502	1094.71	1088.11	1081.46	1074.76	1068	1061.19
x2 = 0.4001	1071.46	1065.13	1058.72	1052.15	1045.52	1038.83
x2 = 0.4503	1048.29	1042.07	1035.7	1029.28	1022.79	1016.23
x2 = 0.4996	1025.41	1019.32	1013.1	1006.83	1000.49	994.079
x2 = 0.5502	1002	996.011	989.957	983.831	977.648	971.39
x2 = 0.6	978.769	972.943	967.056	961.099	955.079	948.987
x2 = 0.6498	955.713	950.066	944.351	938.562	932.714	926.783
x2 = 0.7	932.242	926.773	921.244	915.641	909.966	904.209
x2 = 0.75	908.934	903.601	898.262	892.85	887.36	881.789
x2 = 0.7996	885.608	880.568	875.378	870.212	864.918	859.549
x2 = 0.8495	861.973	857.114	852.182	847.228	842.144	836.984
x2 = 0.8998	837.957	833.329	828.632	823.858	819.006	814.085
x2 = 0.9497	813.892	809.502	805.032	800.505	795.891	791.195

CCCC(C)O (stereo unspecified) [pentan-2-ol] + ClCCCl
mass density [kg/m3]
Settings	288.15 K	293.15 K	298.15 K	303.15 K	308.15 K	313.15 K
x1 = 0.0509	1226.72	1219.63	1212.52	1205.37	1198.2	1191
x1 = 0.0999	1196.47	1189.53	1182.56	1175.56	1168.53	1161.46
x1 = 0.1497	1167.33	1160.55	1153.74	1146.89	1140.02	1133.12
x1 = 0.2001	1139.13	1132.52	1125.87	1119.19	1112.48	1105.73
x1 = 0.2502	1112.6	1106.17	1099.71	1093.19	1086.65	1080.06
x1 = 0.2998	1087.39	1081.13	1074.82	1068.48	1062.1	1055.67
x1 = 0.3504	1062.46	1056.4	1050.28	1044.1	1037.89	1031.63
x1 = 0.4003	1038.87	1033	1027.05	1021.06	1015.01	1008.92
x1 = 0.4498	1016.42	1010.71	1004.93	999.094	993.214	987.283
x1 = 0.4996	994.615	989.082	983.473	977.807	972.094	966.328
x1 = 0.55	973.401	967.993	962.539	957.039	951.485	945.875
x1 = 0.5998	953.123	947.916	942.637	937.302	931.911	926.465
x1 = 0.6497	933.494	928.405	923.275	918.089	912.85	907.552
x1 = 0.6997	914.579	909.663	904.685	899.659	894.573	889.432
x1 = 0.7493	896.637	891.863	887.037	882.154	877.213	872.217
x1 = 0.8001	878.694	874.079	869.408	864.68	859.891	855.042
x1 = 0.8497	861.674	857.211	852.695	848.111	843.467	838.76
x1 = 0.8991	845.438	841.13	836.763	832.331	827.833	823.267
x1 = 0.9504	828.863	824.722	820.52	816.244	811.899	807.481

CCCCCCC(C)O (stereo unspecified) [2-octanol] + ClCCCl
mass density [kg/m3]
Settings	288.15 K	293.15 K	298.15 K	303.15 K	308.15 K	313.15 K
x1 = 0.0499	1215.16	1208.22	1201.27	1194.29	1187.27	1180.23
x1 = 0.1	1175.12	1168.45	1161.76	1155.05	1148.31	1141.54
x1 = 0.1503	1139.01	1132.67	1126.33	1119.85	1113.38	1106.89
x1 = 0.2006	1106.43	1100.33	1094.18	1087.99	1081.76	1075.51
x1 = 0.2498	1077.37	1071.56	1065.66	1059.71	1053.73	1047.71
x1 = 0.3	–	–	–	–	1027.49	–
x1 = 0.3002	1050.06	1044.59	1038.96	1033.26	–	1021.69
x1 = 0.35	1025.54	1020.16	1014.7	1009.18	1003.62	998.027
x1 = 0.3999	1002.85	997.633	992.342	987.014	981.649	976.252
x1 = 0.4499	981.685	976.658	971.558	966.415	961.229	956.01
x1 = 0.4999	962.134	957.22	952.273	947.296	942.282	937.233
x1 = 0.5503	943.764	939.011	934.225	929.407	924.551	919.661
x1 = 0.5992	927.273	922.663	918.023	913.351	908.639	903.897
x1 = 0.6492	911.359	906.886	902.382	897.844	893.27	888.66
x1 = 0.6989	896.738	892.39	888.013	883.603	879.157	874.674
x1 = 0.7503	882.325	878.102	873.846	869.558	865.235	860.873
x1 = 0.7989	869.78	865.66	861.514	857.336	853.118	848.865
x1 = 0.8497	857.292	853.282	849.241	845.167	841.058	836.912
x1 = 0.899	845.686	841.775	837.835	833.858	829.849	825.799
x1 = 0.9492	834.672	830.858	827.012	823.127	819.211	815.252

CCCCC(C)O (stereo unspecified) [2-hexanol] + ClCCCl
mass density [kg/m3]
Settings	288.15 K	293.15 K	298.15 K	303.15 K	308.15 K	313.15 K
x1 = 0.0502	1223.08	1216.04	1208.98	1201.9	1194.78	1187.63
x1 = 0.0999	1188.97	1182.13	1175.27	1168.37	1161.45	1154.5
x1 = 0.1504	1157.18	1150.56	1143.9	1137.21	1130.49	1123.74
x1 = 0.2001	1126.22	1120.72	1114.91	1108.44	1101.9	1095.33
x1 = 0.2498	1099.98	1093.76	1087.5	1081.2	1074.85	1068.47
x1 = 0.2995	1073.96	1068.01	1061.96	1055.85	1049.7	1043.51
x1 = 0.3499	1048.88	1043.06	1037.18	1031.25	1025.28	1019.26
x1 = 0.3999	1025.35	1019.69	1013.99	1008.24	1002.45	996.615
x1 = 0.45	1003.14	997.678	992.164	986.594	980.978	975.219
x1 = 0.4994	982.243	976.929	971.582	966.175	960.716	955.218
x1 = 0.5501	961.948	956.802	951.619	946.386	941.113	935.792
x1 = 0.5999	942.875	937.885	932.861	927.787	922.674	917.511
x1 = 0.6498	924.759	919.925	915.048	910.129	905.161	900.15
x1 = 0.6995	907.657	903.05	898.319	893.543	888.715	883.843
x1 = 0.7499	891.009	886.457	881.863	877.224	872.535	867.8
x1 = 0.8004	874.928	870.513	866.056	861.55	856.996	852.392
x1 = 0.8499	859.958	855.674	851.345	846.966	842.537	838.058
x1 = 0.8998	845.485	841.327	837.125	832.874	828.565	824.204
x1 = 0.9482	831.995	827.968	823.889	819.755	815.567	811.322
